In PubChem BioAssay AID652247 (Sanford-Burnham Center for Chemical Genomics, 2013):
pIC50: −log10 of the molar value. Active and inactive are the calls of the source. No rule for the calls is given here.

Target: NEDD8-conjugating enzyme Ubc12 (Homo sapiens) + NEDD8-activating enzyme E1 regulatory subunit (Homo sapiens) (UniProt P61081+Q13564)
Test: NEDD8 conjugation to CUL1 blockade – biochemical, TR-FRET, dose response (AID 652247)
Conditions: in vitro CUL1 neddylation

NEDD8-conjugating enzyme Ubc12 (Homo sapiens) + NEDD8-activating enzyme E1 regulatory subunit (Homo sapiens), sequence (P61081 whole entry, looked up): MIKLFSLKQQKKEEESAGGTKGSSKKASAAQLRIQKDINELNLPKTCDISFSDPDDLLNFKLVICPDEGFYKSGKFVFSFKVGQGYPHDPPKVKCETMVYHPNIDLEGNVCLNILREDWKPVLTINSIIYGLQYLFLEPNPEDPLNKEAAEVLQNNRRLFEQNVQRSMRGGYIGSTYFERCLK
NEDD8-conjugating enzyme Ubc12 (Homo sapiens) + NEDD8-activating enzyme E1 regulatory subunit (Homo sapiens), sequence (Q13564 whole entry, looked up): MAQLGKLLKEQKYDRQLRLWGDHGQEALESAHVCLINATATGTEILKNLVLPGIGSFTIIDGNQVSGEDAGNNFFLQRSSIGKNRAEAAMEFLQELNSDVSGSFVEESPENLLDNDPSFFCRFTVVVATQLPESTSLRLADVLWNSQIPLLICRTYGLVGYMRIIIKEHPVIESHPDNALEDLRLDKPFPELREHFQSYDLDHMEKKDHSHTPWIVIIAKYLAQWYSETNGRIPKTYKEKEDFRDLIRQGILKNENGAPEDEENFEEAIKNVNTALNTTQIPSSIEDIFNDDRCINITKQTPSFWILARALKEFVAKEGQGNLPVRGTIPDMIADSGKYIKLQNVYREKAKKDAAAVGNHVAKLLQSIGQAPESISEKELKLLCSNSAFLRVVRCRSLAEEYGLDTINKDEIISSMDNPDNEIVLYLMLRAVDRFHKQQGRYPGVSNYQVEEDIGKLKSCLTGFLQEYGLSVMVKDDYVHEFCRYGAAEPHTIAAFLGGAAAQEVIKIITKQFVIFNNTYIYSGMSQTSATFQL

SMILES | IC50 | pIC50
O=C(O)c1ccc2c(=O)n3c(nc2c1)/C(=C/c1ccc(OC(F)F)cc1OC(F)F)CC3 | inactive | 
CCN(CC)CCNC(=O)Cn1c(-c2ccccn2)nc2ccccc21 | inactive | 
CC(=O)Nc1cc(-c2ccc(N3CCN(C)CC3)cc2)cn2c(-c3ccc(F)cc3)cnc12 | inactive | 
C=CCNC(=O)c1ccc2c3n(nc2c1)-c1ccc(C)cc1CO3 | inactive | 
COc1cc(/C=N/Nc2nc3ccccc3[nH]2)cc(Br)c1OCC(=O)N(C)C | inactive | 
Cc1ccc(-n2c3nc(=O)n(C)c(=O)c-3cc3ccccc32)cc1 |  | 4.75
OC1CCCN(Cc2c3ccccc3cc3ccccc23)C1 (stereo not given) | inactive | 
O=C(O)Cn1c(=O)c(-c2ccccc2)nc2ccccc21 | inactive | 
NNC(=O)c1ccc(CSc2cccc3cccnc23)cc1 | inactive | 
Cc1cccn2c(=O)c3cc(C(=O)N4CCN(Cc5ccccc5)CC4)sc3nc12 |  | 4.75
COc1ccccc1N1CCN(C(=O)c2cc3c(=O)n4cccc(C)c4nc3s2)CC1 | inactive | 
CC(=O)Nc1nc(C)c(-c2csc(Nc3ccc(S(N)(=O)=O)cc3)n2)s1 |  | 4.93
Cc1cccc(C)c1NC(=O)C(C1CC1)n1c(=O)c(-c2ccccc2)nc2ccccc21 (stereo not given) | inactive | 
CCOc1ccc2[nH]c3ncccc3c(=O)c2c1 | inactive | 
COc1ccc(CC(=O)N/N=C\c2cc(Br)c(O)c(Br)c2)cc1 | inactive | 
C=CCNC(=S)N/N=C/c1ccc(N(CC)Cc2ccccc2)cc1 | inactive | 
Cc1cc(NC(=O)COC(=O)c2nccnc2N)n(-c2ccccc2)n1 |  | 4.88
Nc1cccc2c(=O)[nH][nH]c(=O)c12 | inactive | 
COC(=O)c1nc2cc3c(cc2c(C)c1C(=O)OC)OCO3 | inactive | 
O=C(N/N=C/c1ccc2cccnc2c1)c1nc2ccccc2c(=O)[nH]1 | > 100 µM (inactive) | 
CC(=O)N1N=C2/C(=C/c3ccccc3)CCCC2C1c1ccccc1 (stereo not given) | inactive | 
Cc1ccccc1NC(=O)NNC(=O)c1ccc2ccccc2c1O | inactive | 
Nc1c(C(=O)Nc2ccccc2)c2nc3ccccc3nc2n1CCCN1CCOCC1 | inactive | 
Cc1ccc(C)c(OCC(=O)N/N=C/c2ccc(N3CCOCC3)cc2)c1 | inactive | 
COCc1cc(C)nc(NC2CC(C)(C)NC(C)(C)C2)c1C#N | inactive | 

SMILES | IC50 | pIC50
COc1ccccc1N(C(=O)c1snc(C(N)=O)c1N)C(C(=O)NC1CCCC1)c1ccco1 (stereo not given) | inactive | 
COC(=O)C1=C(C)NC2=C(C(=O)C(C(=O)OC)C(c3ccc(OC)cc3)C2)C1c1ccccn1 (stereo not given) | inactive | 
CCOc1ccc2[nH]c(C(=O)N/N=C/c3cccc(OC)c3OC)cc2c1 | inactive | 
CCN1CCN(C(=O)c2ccc3nc(-c4ccccc4)c(-c4ccccc4)nc3c2)CC1 | inactive | 
CC1CCN(C(=O)CN2c3cccc4cccc(c34)S2(=O)=O)CC1 | inactive | 
O=C(N/N=C/c1cccnc1)c1ccc(CN2c3cccc4cccc(c34)S2(=O)=O)cc1 | inactive | 
CCN(CC)c1ccc(/C=N/NC(=O)CNC(=O)c2cccs2)cc1 |  | 4.83
Cn1c(=O)c(-c2ccccc2)nc2ccccc21 | inactive | 
CC(C(=O)NCC1CCCO1)N(C(=O)c1snc(C(N)=O)c1N)c1cccc(F)c1 (stereo not given) | inactive | 
N#Cc1ccc(/C=C2\CCn3c2nc2cc(C(=O)O)ccc2c3=O)cc1 |  | 4.84
Cn1nc(/C=C/c2ccccc2)ccc1=O | inactive | 
COC(=O)C1=C(C)NC2=C(C(=O)CCC2)C1c1ccc(-c2ccsc2C(=O)OC)o1 (stereo not given) | inactive | 
COc1ccc(OC)c(C=NNC(=O)c2ccc(NS(=O)(=O)c3cccs3)cc2)c1 | inactive | 
CCOc1ccccc1NC(=O)CN1c2cccc3cccc(c23)S1(=O)=O | inactive | 
Cc1ccc(C(C(=O)NCC2CCCO2)N(C(=O)c2snc(C(N)=O)c2N)c2ccc(F)cc2)o1 (stereo not given) | > 100 µM (inactive) | 
c1cnc2cc(-c3ccsc3)ncc2c1 | inactive | 
COc1ccc2cc(C(=O)N/N=C/c3cc(OC)c(OC)c(OC)c3)[nH]c2c1 | inactive | 
CCCCn1c(O)c(/C=N/NC(=O)c2ccncc2)c(=O)[nH]c1=S | inactive | 
CSc1cnc2c(=O)n(C)c(=O)[nH]c2n1 | inactive | 
COc1ccc2[nH]c(C(=O)N/N=C/c3cc(OC)c(OC)c(OC)c3)cc2c1 | inactive | 
O=C(O)c1ccc(/C=N/NC(=O)c2ccc(CN3c4cccc5cccc(c45)S3(=O)=O)cc2)cc1 | inactive | 
O=C(Nc1ccc2c(c1)OCO2)c1cc(-c2ccc(O)cc2)on1 | inactive | 
CC(=O)c1ccc(-c2ccc(C(=O)NCC(c3ccc(F)cc3)N3CCOCC3)o2)cc1 (stereo not given) | inactive | 
O=C(CCc1ccccc1)Nc1nnc(-c2ccccn2)o1 | inactive | 
Cn1ncc2cc3c(Nc4ccc(Cl)cc4)cccc3nc21 | inactive | 
